Measured values as given in ChEMBL document CHEMBL1152151, “Synthesis and preliminary pharmacological evaluation of N-2-(4-(4-(2-substitutedthiazol-4-yl) piperazin-1-yl)-2-oxoethyl)acetamides as novel atypical antipsychotic agents” (Bioorg Med Chem Lett, 2008).
The source made the active and inactive calls. The rule behind the calls is not given here.

Legend:
Mus musculus [1] = experiment: Inhibition of dopamine D2 receptor-mediated apomorphine-induced cage climbing behavior in Swiss albino mouse at 10 mg/kg measured on 10 mins; format: functional
Mus musculus [2] = species: Mus musculus; experiment: Toxic cataleptic effect in Swiss albino mouse assessed as maximum average cataleptic time; format: toxicity, organism-based; details: in vivo
Mus musculus [3] = experiment: Inhibition of dopamine D2 receptor-mediated apomorphine-induced cage climbing behavior in Swiss albino mouse at 10 mg/kg measured on 30 mins; format: functional; details: 0.5 h
Mus musculus [4] = experiment: Inhibition of dopamine D2 receptor-mediated apomorphine-induced cage climbing behavior in Swiss albino mouse at 10 mg/kg measured on 20 mins; format: functional
Mus musculus [5] = experiment: Ratio of inhibition of quipazine-induced head twitches to inhibition of apomorphine-induced cage climbing behavior in Swiss albino mouse at 10 mg/kg; format: functional
Mus musculus [6] = experiment: Inhibition of 5HT2A receptor-mediated quipazine-induced head twitches in Swiss albino mouse at 10 mg/kg; format: functional
Mus musculus [7] = species: Mus musculus; experiment: Toxic cataleptic effect against Swiss albino mouse; format: toxicity, organism-based; details: in vivo
Mus musculus [8] = experiment: Inhibition of dopamine D2 receptor-mediated apomorphine-induced cage climbing behavior in Swiss albino mouse at 10 mg/kg; format: functional
Mus musculus [9] = experiment: Inhibition of 5HT2A receptor-mediated quipazine-induced head twitches in Swiss albino mouse at 0.6 mg/kg, ip; format: functional, organism-based; parameters: dose 0.6 mg/kg
Mus musculus [10] = experiment: Inhibition of dopamine D2 receptor-mediated apomorphine-induced cage climbing behavior in Swiss albino mouse at 1 mg/kg, ip; format: functional, organism-based; parameters: dose 1 mg/kg

| SMILES | inhibition in vivo at 10 mg/kg (Mus musculus [1]) [%] | Activity (Mus musculus [2]) [s] | inhibition in vivo at 10 mg/kg (Mus musculus [3]) [%] | inhibition in vivo at 10 mg/kg (Mus musculus [4]) [%] | Ratio (Mus musculus [5]) | inhibition in vivo at 10 mg/kg (Mus musculus [6]) [%] | Activity (Mus musculus [7]) | inhibition in vivo at 10 mg/kg (Mus musculus [8]) [%] | Activity (Mus musculus [9]) | Activity (Mus musculus [10]) |
| --- | --- | --- | --- | --- | --- | --- | --- | --- | --- | --- |
| CC(=O)NCC(=O)N1CCN(CCc2ccc(-c3csc(C)n3)cc2)CC1 | 70 | 4.62 | 70 | 65 | 0.2857 | 20 | Non-toxic | 70 |  |  |
| CC(=O)NCC(=O)N1CCN(CCc2ccc(-c3nc(C)sc3C)cc2)CC1 | 65 | 5.12 | 80 | 65 | 0.8875 | 71 | Non-toxic | 80 |  |  |
| Cc1nc2n(c(=O)c1CCN1CCC(c3noc4cc(F)ccc34)CC1)CCCC2 [RISPERIDONE] | 91 | 2.54 | 90 | 91 | 1.0989 | 100 | Non-toxic | 91 | Active |  |
| O=C(CCCN1CCC(O)(c2ccc(Cl)cc2)CC1)c1ccc(F)cc1 |  |  |  |  |  |  |  |  |  | Active |
| CNc1nc(-c2ccc(CCN3CCN(C(=O)CNC(C)=O)CC3)cc2)cs1 | 60 | 16.54 | 60 | 50 | 0.9 | 54 | Non-toxic | 60 |  |  |
